Format in all cases: in vivo, Sprague Dawley rats
Assay [1] concerns ovariectomized rats. Nature of the assay: Bone Sparing: Five Week Ovariectomized Rat Model, femur X-ray Bone Assay. The note with it: OVX rats, oral gavage daily for 35 days, dose of 0.01 mg/kg. An excerpt: Seventy-five day old female Sprague Dawley rats (weight range of 275 g-350 g) were obtained from Charles River Laboratories (Portage, Mich.). The animals were either bilaterally ovariectomized (OVX) or exposed to a Sham surgical procedure at Charles River Laboratories, and then shipped the day following surgery. Upon arrival, these rats were housed in metal hanging cases in groups of three or four animals per cage, and had ad libitum access to food (Teklad diet, TD 89222, 0.5% calcium, 0.4% phosphorous; Madison, Wis.) and water. Room temperature was maintained at 22.2° C.±1.7° C. with a minimum relative humidity of 40%. The photoperiod in the room was twelve hours light and twelve hours dark. Test compound preparation was the same as that described in the Estrogenicty assay above. After a one day acclimation period (two days post-OVX), dosing with test compounds was initiated. Oral gavages 20% CDX, representative compound of the invention (0.01 to 10 mg/kg), or 17α-ethynylestradiol (100 μg/kg) were delivered daily for 35 consecutive days. On the evening following the final dose, the animals were fasted. The next morning the animals were aneshetized with a mixture of Ketaset® and Rompun® (67 and 6.7 mg/kg respectively). […] Quantitation was achieved by measuring the total number of pixels in a standard region of interest proximal to the growth plate, over a gray scale range of zero to 60.

Assay [2] relates to ovariectomized rats. Nature of the assay: Four Day Ovariectomized Rat Model: Uterine Eosinophil Peroxidase (EPO) Assay. The note with it: OVX rats, oral daily for four days. From the text: (§1) Estrogenicity: Four Day Ovariectomized Rat Model
(§2) Seventy-five day old female Sprague Dawley rats (weight range of 225 g-275 g) were obtained from Charles River Laboratories (Portage, Mich.). The animals were either bilaterally ovariectomized (OVX) or exposed to a Sham surgical procedure at Charles River Laboratories, and then shipped after one week. Upon arrival, these rats were housed in metal hanging cases in groups of three or four animals per cage, and had ad libitum access to food (Teklad diet, TD 89222, 0.5% calcium, 0.4% phosphorous; Madison, Wis.) and water. Room temperature was maintained at 22.2° C.±1.7° C. with a minimum relative humidity of 40%. The photoperiod in the room was twelve hours light and twelve hours dark. […]
(§3) After a one-week acclimation period (two weeks post-OVX), daily dosing with test compound and 17α-ethynylestradiol was initiated. […] The animals were then sacrificed by asphyxiation with CO2, the uterus was removed through a midline incision, and a wet uterine weight was determined.
Uteri were kept at 4° C. until time of enzymatic analysis. […] Upon addition of 0.01% hydrogen peroxide and […] o-phenylenediamine (final concentrations) in Tris buffer, the increase in absorbance was monitored for one minute at 450 nm. […] The maximal velocity of a fifteen second interval was determined over the initial, linear portion of the reaction curve.

For assay [3], the system named is ovariectomized rats. Nature of the assay: Four Day Ovariectomized Rat Model: Serum Cholesterol Analysis. The settings on record: OVX rats, orally administered at 0.1 mg/kg/day, four days.
From the text: as §1, §2, §3
The blood samples, collected as described above, were allowed to clot at room temperature for two hours, and serum was obtained following centrifugation for ten minutes at 3000 rpm. Serum cholesterol was determined using a high-performance cholesterol assay (Boehringer Mannheim Diagnostics, Indianapolis, Ind.). […] Cholesterol concentration was then calculated against a standard curve.

In assay [4] the test system is ovariectomized rats. Nature of the assay: Four Day Ovariectomized Rat Model: wet uterine weight. The settings on record: OVX rats, orally administered at 0.1 mg/kg/day, four days, versus untreated ovariectomized animals.
From the text: as §1
Seventy-five day old female Sprague Dawley rats (weight range of 225 g-275 g) were obtained from Charles River Laboratories (Portage, Mich.). The animals were either bilaterally ovariectomized (OVX) or exposed to a Sham surgical procedure at Charles River Laboratories, and then shipped after one week. Upon arrival, these rats were housed in metal hanging cases in groups of three or four animals per cage, and had ad libitum access to food (Teklad diet, TD 89222, 0.5% calcium, 0.4% phosphorous; Madison, Wis.) and water. Room temperature was maintained at 22.2° C.±1.7° C. with a minimum relative humidity of 40%. The photoperiod in the room was twelve hours light and twelve hours dark. Comparative data were obtained between untreated ovariectomized rats, ovariectomized rats treated with 17α-ethynylestradiol (EE2), and ovariectomized rats treated with representative compounds of the present invention.
After a one-week acclimation period (two weeks post-OVX), daily dosing with test compound and 17α-ethynylestradiol was initiated. The test compounds or 17α-ethynylestradiol (Sigma Chemical Co., St. Louis, Mo.) were given orally, unless otherwise stated, as a suspension in 20% cyclodextrin (CDX). […] The animals were then sacrificed by asphyxiation with CO2, the uterus was removed through a midline incision, and a wet uterine weight was determined.

With `CCOCOc1ccc(-c2sc3cc(OCOCC)ccc3c2C(=O)c2ccc(OCCN3CCCCC3)cc2)cc1` [Example 3, 2-(4-[Ethoxymethoxy]phenyl)-3-(4-[(2-Piperidin-1-yl)ethoxy]benzoyl)-6-Ethoxymethoxybenzo[b]thiophene], the “protection of the femur from bone loss (X-ray evaluation)” value in assay [1] is listed as 9.1%.
In the case of `C#C[C@]1(O)CC[C@H]2[C@@H]3CCc4cc(O)ccc4[C@H]3CC[C@@]21C` [EE2, 17α-ethynylestradiol], the “eosinophil infiltration (uterine EPO)” value in assay [2] is “substantial, expected increase in eosinophil infiltration”. Also, the serum cholesterol result in assay [3] is on record as “caused a decrease in serum cholesterol”. Besides, the uterine weight entry in assay [4] is “substantially greater than the uterine weight of untreated ovariectomized test animals”.

Source of the values: patent US6403614B1, “Benzothiophenes” (Eli Lilly and Company, priority 1997, dated 2002).
